According to patent US20210205404A1, “PHARMACEUTICAL COMPOSITION OF KOR RECEPTOR AGONIST” (JIANGSU HENGRUI MEDICINE CO., LTD., priority 2018, published 2021):
Read-outs that look alike come from different tables or passages of the source. Square brackets hold non-standard residues; d marks the D form. Peptide text beside a SMILES is read from it. * marks the point of attachment. Gly(N-(2R-Ph-propyl)) = C[C@@H](CNCC(=O)O)c1ccccc1; Piperidin1yl(4-NH2,4-COOH) = NC1(C(=O)O)CCN(*)CC1

How the values were obtained:
[1] = Solubility of the active ingredient (statement); format: physicochemical; conditions: free compound, background statement
[2] = Procedure: High performance liquid chromatography (HPLC) was determined on an Agilent 1200DAD high pressure liquid chromatograph (Sunfire C18 150×4.6 mm column) and Waters 2695-2996 high pressure liquid chromatograph (Gimini C18 150×4.6 mm column).
The study period was 20 days.

Row | SMILES | Solubility (in words) [1] | Purity % ([2]; 40° C., 5 days) [%] | Purity % ([2]; 40° C., 10 days) [%] | Purity % ([2]; 40° C., 20 days) [%] | Purity % ([2]; 60° C., 5 days) [%] | Purity % ([2]; 60° C., 10 days) [%] | Purity % ([2]; 60° C., 20 days) [%] | Purity % ([2]; 4500 Lux, 0 day (start value)) [%] | Purity % ([2]; 4500 Lux, 5 days) [%] | Purity % ([2]; 4500 Lux, 10 days) [%] | Purity % ([2]; 4500 Lux, 20 days) [%] | Stability of the salt (conclusion in words) ([2]; lighting, 40° C. and 60° C., 20 days)
1 | CC(C)C[C@@H](NC(=O)[C@@H](Cc1ccccc1)NC(=O)CNC[C@H](C)c1ccccc1)C(=O)N[C@H](CCCCN)C(=O)N1CCC(N)(C(=O)O)CC1 [Compound A, 4-amino-N—[N^2—[N—[N—[N-((R)-2-phenylpropyl)glycyl]-D-phenylalanyl]-D-leucyl]-D-lysyl]piperidine-4-carboxylic acid] (H-[Gly(N-(2R-Ph-propyl))][dF][dL][dK]-{Piperidin1yl(4-NH2,4-COOH)}) | low solubility |  |  |  |  |  |  |  |  |  |  | 
2 | CC(C)C[C@@H](NC(=O)[C@@H](Cc1ccccc1)NC(=O)CNC[C@H](C)c1ccccc1)C(=O)N[C@H](CCCCN)C(=O)N1CCC(N)(C(=O)O)CC1.Cl.Cl.Cl [Hydrochloride (1:3), 4-Amino-N—[N^2—[N—[N—[N-((R)-2-phenylpropyl)glycyl]-D-phenylalanyl]-D-leucyl]-D-lysyl]piperidine-4-carboxylic acid hydrochloride (1:3)] (H-[Gly(N-(2R-Ph-propyl))][dF][dL][dK]-{Piperidin1yl(4-NH2,4-COOH)}) |  | 96.54 | 96.42 | 96.41 | 96.42 | 96.43 | 96.41 | 96.50 | 95.57 | 94.27 | 94.24 | good stability
